Test results published in the METLIN SMRT retention time set (Domingo-Almenara et al. 2019).

Test: gradient 5% acetonitrile 3 min, to 50% in 2 min, to 85% in 15 min, held 3 min, 100 µL/min
Details: column: Zorbax Extend-C18 2.1 x 50 mm; eluents: water / acetonitrile, 0.1% formic acid
Summary of the method: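 In both positive and negative ionization mode, a quadrupole time-of-flight mass spectrometer coupled to HPLC analyzed pure standards run in mixtures of ~100 molecules. The Zorbax Extend-C18 column (2.1 × 50 mm, 1.8 μm) was operated at 100 μL/min with water and acetonitrile, each containing 0.1% formic acid. The dead volume was 40 μL and the dwell volume 900 μL. Retention time came from adduct peaks that were computationally picked and individually inspected by hand.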

Structure (SMILES)	RP-LC retention time
Cc1ccc(NC(=O)CN2C(=O)CCS(=O)(=O)c3ccccc32)cc1	761 s
CCc1nc(-c2csc(S(=O)(=O)N3CCCC(C(=O)Nc4ccccc4F)C3)c2)no1 (stereo not drawn)	1010 s
Cn1nc(-c2nnc(-c3ccccc3F)o2)c2c1CCN(S(=O)(=O)c1ccccc1F)C2	903 s
COc1ccc(-c2ccc(SCC(=O)Nc3cccc([N+](=O)[O-])c3)nn2)cc1OC	793 s
O=C(NCCC1=CCCCC1)C1CCc2ncc(-c3ccsc3)n2C1 (stereo not drawn)	601 s
CCN1CCN(C(=O)c2ccc3ccnc(N4CCN(c5ccc(Cl)cc5)CC4)c3c2)CC1	618 s
CN1CCC(NC(=O)c2ccc3c(c2)N(S(=O)(=O)c2ccccc2F)CC3)CC1	626 s
O=C(CN1CCN(c2ncccn2)CC1)N1c2ccccc2Sc2ccccc21	602 s
COC(=O)c1ccc2c(c1)nnn2Cc1ccc(F)cc1	916 s
CCC(=O)NCc1nc2c(n1C)CN(S(=O)(=O)c1ccc(CC)cc1)CC2	581 s
COc1ccc(OC)c(NC(=O)C2CCN(S(=O)(=O)c3ccc4c(c3)sc(=O)n4C)CC2)c1	840 s
O=C(Cn1ccn2nc(-c3ccc(F)cc3)c(CO)c2c1=O)Nc1ccc(F)c(F)c1	865 s
CCOC(=O)c1c(C)[nH]c(C(=O)N2CCCC(C(=O)NCCC(C)C)C2)c1C (stereo not drawn)	798 s
CCn1cc(C)c(C(=O)O)c1CC(=O)N1CCC(N2CCCCC2)CC1	587 s
COCCc1noc(-c2cnc3nc(C)ccc3c2NC2CCCCCC2)n1	734 s
O=C(O)c1ccccc1-c1c2ccc(=O)c(O)c-2oc2c(O)c(O)ccc12	702 s
COc1ccc2c(c1)C1(CCN(C(=O)Cc3ccc(C)cc3)C1)C(=O)N2 (stereo not drawn)	757 s
CCC(=O)Nc1ccc(S(=O)(=O)NC2CCN(c3ccc(=O)n(CC4CC4)n3)C2)cc1 (stereo not drawn)	712 s
COc1ccccc1N1CCN(c2cc(SCC(=O)Nc3cc(F)ccc3Cl)ncn2)CC1	1190 s
COc1ccc(C2NC(c3ccc(OC)c(OC)c3)C(C)C(=O)C2C)cc1OC (stereo not drawn)	755 s
COc1ccc(N2CC(c3noc(-c4cc(OC)c(OC)c(OC)c4)n3)CC2=O)cc1OC (stereo not drawn)	813 s
CN(CCc1noc(COc2ccccc2)n1)C(=O)Cc1ccccc1	863 s
O=C(Cc1csc2nc(-c3ccccc3)cn12)NCCC1=CCCCC1	864 s
CC1CCN(S(=O)(=O)c2ccc(-c3nnc(C(=O)NCCCc4ccccc4)o3)cc2)CC1	1150 s

Structure (SMILES)	RP-LC retention time
COc1ccc(NC(=O)N2C[C@@H](F)C[C@H]2C(=O)N2CCCCC2)cc1F	660 s
CCC(=O)N(C1CCOCC1)C1CCN(S(=O)(=O)c2ccc(C)cc2C)CC1	880 s
COc1ccccc1N1CCN(C(=O)c2nnc(-c3ccc(S(=O)(=O)N4CCCC4)cc3)o2)CC1	972 s
COCCn1cc2c3c(cccc31)CN(C(=O)Nc1cc(OC)c(OC)c(OC)c1)CC2	825 s
Cc1ccc(NC(=O)N2CCc3nc[nH]c3C2)cc1	575 s
O=C(Nc1cccn2ncnc12)c1ccccc1C(F)(F)F	765 s
O=C(NCc1cc(F)cc(F)c1)c1ccc2c(c1)ncn2CCN1CCCC1	594 s
CCN(CC)C(=O)c1cnc2snc(C)c2c1N1CCC(C(=O)Nc2cc(F)ccc2F)CC1	940 s
CCOc1ccc(S(=O)(=O)N2CCC(C(=O)NCCOC)CC2)cc1C	783 s
CC(C)c1ccc(CNC(=O)C2CCN(C(=O)c3ncn4c3COC(c3ccccc3)C4)CC2)cc1 (stereo not drawn)	892 s
CCNc1cc(N2CCCC(CCC(=O)Nc3ccccc3)C2)ncn1 (stereo not drawn)	669 s
O=C1C(N2CCN(S(=O)(=O)c3cc(F)cc(F)c3)CC2)CCN1Cc1ccccn1 (stereo not drawn)	601 s
COc1ccc(Cl)cc1NS(=O)(=O)c1cc2n(c1)CCCN(C)C2=O	724 s
CCOc1ccc(CNC(=O)C2CCCN(c3nccnc3Sc3ccccc3)C2)cc1OCC (stereo not drawn)	1030 s
Fc1ccc(CN(C2=NCCN2)c2c(Cl)cccc2Cl)cc1	760 s
CCCCS(=O)(=O)N1CCC(C2CCN(C(=O)NC)CC2)C1 (stereo not drawn)	682 s
O=C(CN1C(=O)COc2ccc(C(=O)N3CCCCC3)cc21)NCc1ccco1	691 s
O=C(c1ccc(Nc2nn3c(=O)c4ccccc4nc3s2)cc1)N1CCN(c2ccccn2)CC1	622 s
O=S(=O)(c1ccccc1)N1CCC(c2nc(CCOCC3CC3)no2)C1 (stereo not drawn)	896 s
O=C(O)c1ccc(OCC(=O)C2CC2)cc1	636 s
COC1=CC(=O)O[C@H](/C=C/c2ccc3c(c2)OCO3)C1	809 s
Cc1ccc(NC(=O)C2CCN(S(=O)(=O)c3c(C)[nH]c(C)c3C(=O)N3CCCC3)CC2)c(C)c1	729 s
CCCN(C)C(=O)CCc1cc2cc(OC)ccc2[nH]c1=O	675 s

Next, values leading:

RP-LC retention time	Structure (SMILES)
674 s	COc1cccc2cc(C(=O)NCCn3nc(C)cc3C)oc12
778 s	Cc1ccc(Nc2c(-c3cccc(Br)c3)nc3ccccn23)cc1
676 s	COc1cccc2cc(C(=O)NCCn3nc(-c4cccs4)ccc3=O)oc12
736 s	COc1ccc(-c2nnc(SCC(=O)Nc3ccc(S(N)(=O)=O)cc3)o2)cc1
689 s	O=C(Nc1cc(F)ccc1F)N1CCCC(Cn2c(C3CC3)nc3cccnc32)C1 (stereo not drawn)
534 s	O=C(NCc1cccnc1)c1cc(N2CCCC2)n2nccc2n1
704 s	Cn1c(=O)n(CC(=O)O)c(=O)c2c1nc1n2CCN1c1ccc(F)cc1
791 s	CCNC(=O)c1cc2cc(C)ccc2[nH]1
919 s	Cc1ccc(CNC(=O)c2c(C)oc3ccn(C)c(=O)c23)cc1
973 s	COc1cc(OC)cc(-c2noc(-c3nn(-c4ccc(Cl)cc4)ccc3=O)n2)c1
1070 s	CCOc1ccc(-c2nn3c(Cc4ccc(OC)cc4)nnc3s2)cc1
667 s	COc1cc(O)ccc1-c1nc2cccc(C)n2c1Nc1ccccc1C
1150 s	Cc1ccc2oc(-c3noc(C(=O)NCc4cccs4)n3)c(C)c2c1
931 s	CCOc1ccc(CC(=O)Nc2ccc3c(c2)Sc2ncccc2C(=O)N3C)cc1
980 s	Fc1ccc(Nc2c(-c3ccc(Br)cc3)nc3cnccn23)cc1
806 s	Cc1ccc(-c2cc3c(=O)n(Cc4noc(CN5CCCCCCC5)n4)ccn3n2)cc1C
638 s	O=C(Nc1cccc2ccc(-n3ccnc3)nc12)c1ccccc1C(F)(F)F
564 s	CNc1nc(N2CCNC(=O)C2)nc2ccccc12
868 s	CCCCN(C)C(=O)c1c(C)oc2ccn(Cc3ccc(F)cc3)c(=O)c12
713 s	CN(c1ccccc1CNc1nc(Nc2ccc3c(c2)CC(=O)N3)ncc1C(F)(F)F)S(C)(=O)=O
1310 s	Cc1ccc(-n2nc(C)c3sc(N4CCCC(C(=O)Nc5cccc(Cl)c5C)C4)nc32)cc1 (stereo not drawn)

RP-LC retention time	Structure (SMILES)
1080 s	CCOC(=O)N1CCN(c2nc(-c3cccc([N+](=O)[O-])c3)cs2)CC1
800 s	Cc1cccc(NC(=O)c2ccc(=O)n(Cc3ccc(F)cc3)n2)n1
606 s	Cc1cc(=O)n(CC(=O)NCc2ccccc2)c(N2CCCC2)n1
906 s	Cc1ccc(CNC(=O)C2CCN(S(=O)(=O)c3cc(-c4noc(C)n4)sc3C)CC2)o1
1000 s	CCOc1ccc(NC(=O)Nc2nccn(-c3cccc(Cl)c3)c2=O)cc1
898 s	CCCc1nnsc1C(=O)N1CC(c2nc(Cc3ccccc3OC)no2)C1
740 s	CCc1nc2c(=O)n(CC(=O)N(CC)Cc3ccccc3)nc(C)c2s1
656 s	Cc1ccc(CNC(=O)Cn2c(=O)c(=O)n(C)c3ncccc32)o1
835 s	COc1ccc(-c2noc(-c3nn(-c4ccc(F)c(F)c4)ccc3=O)n2)cc1OC
858 s	COc1ccccc1-c1noc(C2CCCN2C(=O)Nc2cccc(C)c2C)n1 (stereo not drawn)
1240 s	Cc1sc(-c2nc(-c3ccc(F)cc3)no2)cc1S(=O)(=O)N1CCN(c2ncccn2)CC1
692 s	Cc1ccc2c(=O)c(C(=O)N3CCCC3)cn(CC(=O)Nc3ccccc3C)c2n1
1030 s	CCOc1ccccc1NC(=O)CSc1ncnc2c1nnn2-c1ccc(OC)cc1
631 s	C=CCn1nc2c(C)c(C)nc(-c3cccnc3)n2c1=O
1200 s	CCOC(=O)c1cc(C2CC2)nc2c1c(=O)n(Cc1cccc(Cl)c1)c(=O)n2C
799 s	Cc1nc(C)c(C(=O)Nc2ccc(F)cc2C)s1
859 s	Cc1cc(=O)n(CC(=O)Nc2cccc(Cl)c2)c(N2CCc3ccccc3C2)n1
1230 s	Cc1cc(C)cc(-c2nnc(Cc3nc(-c4ccc(Cl)cc4)no3)o2)c1
865 s	CCCn1cc(C2=CCN(S(=O)(=O)c3ccc(NC(C)=O)cc3)CC2)c2cccnc21
812 s	Cc1ccc2nc(NC(=O)C3CC(=O)N(c4n[nH]c5cccc(F)c45)C3)sc2c1 (stereo not drawn)
